According to US11008290B2, “Halogenated quinoline derivatives as antimicrobial agents” (University of Florida Research Foundation, Incorporated, priority 2015, dated 2021):
Converted amounts (≈) assume the structure as drawn. Read-outs that look alike come from different tables or passages of the source.

Experiments:
[1] = tested on: MRSA-2 planktonic cells and biofilms; test: Calgary Biofilm Device (CBD) MBC/MBEC determination; format: cell-based, Staphylococcus aureus; conditions: for MBC: Staphylococcus aureus, MRSA
Method: (§1) Biofilm eradication experiments were performed using the Calgary Biofilm Device to determine MBC/MBEC values for various compounds of interest (Innovotech, product code: 19111). The Calgary device (96-well plate with lid containing 96 total pegs to establish biofilms; 1 peg/well) was inoculated with 125 μL of a mid-log phase culture diluted 1,000-fold in tryptic soy broth with 0.5% glucose (TSBG) to establish bacterial biofilms after incubation at 37° C. for 24 hours. The lid of the Calgary device was then removed, washed and transferred to another 96-well plate containing 2-fold serial dilutions of the test compounds (the “challenge plate”). The total volume of media with compound in each well in the challenge plate was 150 μL. The Calgary device was then incubated at 37° C. for 24 hours. The lid was then removed from the challenge plate and MBC/MBEC values were determined using different final assays. […] The MBC values were determined as the concentration giving a lack of visible bacterial growth (e.g., turbidity). For determination of MBEC values, the Calgary device lid (with attached pegs/treated biofilms) was transferred to a new 96-well plate containing 150 μL of fresh TSBG media in each well and incubated for 24 hours at 37° C. to allow viable biofilms to grow and disperse resulting in turbidity after the incubation period. […] In select experiments, treated pegs from the Calgary device were removed from lead biofilm eradicators after final incubation, sonicated for 30 minutes in PBS and plated out to determine biofilm cell killing (e.g., colony forming unit per milliliter, CFU/mL).

[2] = tested on: VRE (ATCC 700221) planktonic cells and biofilms; test: as above; format: cell-based, Enterococcus faecium; conditions: Enterococcus
Method: as §1

MRSA-2 = test: Mechanistic investigations with metal(II)-cations (MIC assay with 200 μM metal salt); format: cell-based, Staphylococcus aureus; conditions: for MIC: Staphylococcus aureus
Method: (§2) The minimum inhibitory concentration (MIC) for each compound was determined by the broth microdilution method as recommended by the Clinical and Laboratory Standards Institute (CLSI). In a 96-well plate, eleven two-fold serial dilutions of each compound were made in a final volume of 100 μL Luria Broth. Each well was inoculated with ˜10^5 bacterial cells at the initial time of incubation, prepared from a fresh log phase culture (OD600 of 0.5 to 1.0 depending on bacterial strain). […] The concentration range tested for each compound during this study was 0.10 to 100 μM. DMSO served as the vehicle and negative control in each microdilution MIC assay. DMSO was serially diluted with a top concentration of 1% v/v. Bacterial strains used: methicillin-resistant Staphylococcus aureus-2 (MRSA-2; clinical isolate from Shands Hospital in Gainesville, Fla.), methicillin-resistant Staphylococcus epidermidis (MRSE; ATCC 35984), vancomycin-resistant Enterococcus faecium (VRE, ATCC 700221).

[3] = tested on: vancomycin-resistant Enterococcus faecium (VRE, ATCC 700221); test: Minimum inhibitory concentration (MIC) susceptibility assay, broth microdilution; format: cell-based; conditions: read-out: VRE MIC
Method: as §2

[4] = tested on: methicillin-resistant Staphylococcus epidermidis (MRSE; ATCC 35984); test: as above; format: cell-based; conditions: for MIC: Staphylococcus epidermidis, read-out: MRSE MIC
Method: as §2

[5] = tested on: methicillin-resistant Staphylococcus aureus-2 (MRSA-2; clinical isolate); test: as above; format: cell-based; conditions: Staphylococcus, MRSA
Method: as §2

[6] = tested on: MRSE (ATCC 35984) planktonic cells and biofilms; test: Calgary Biofilm Device (CBD) MBC/MBEC determination; format: cell-based, Staphylococcus epidermidis; conditions: Staphylococcus epidermidis, planktonic killing, CBD, first value of cell
Method: as §1

human red blood cells = test: Hemolysis assay; format: cell-based
Method: Freshly drawn human red blood cells (hRBC with ethylenediaminetetraacetic acid (EDTA) as an anticoagulant) were washed with Tris-buffered saline (0.01M Tris-base, 0.155M sodium chloride (NaCl), pH 7.2) and centrifuged for 5 minutes at 3500 rpm. The washing was repeated three times with the buffer. In 96-well plate, the test compounds were added to the buffer. […] The plate was then incubated for 1 hour at 37° C. After incubation, the plate is centrifuged for 5 minutes at 3500 rpm. Then 80 μL of the supernatant were transferred to another 96-well plate and the Optical Density (OD) was read at 405 nm. […] The percent of hemolysis was calculated as (OD405 of the compound-OD405 DMSO)/(OD405 Triton X-OD405 buffer).

[7] = MRSA-2, change in antibacterial activity according to MIC values
[8] = MRSA-2, 200 μM ammonium iron (II) sulfate hexahydrate, read-out: MIC w/Fe^2+
[9] = MRSA-2, 200 μM copper (II) sulfate, read-out: MIC w/Cu^2+
[10] = MRSA-2, 200 μM zinc (II) chloride, read-out: MIC w/Zn^2+
[11] = Table 3, planktonic killing, CBD, first value of MBC/MBEC cell, read-out: MRSA-2 MBC
[12] = Table 3, planktonic killing, CBD, first value of cell, footnote c = lowest concentration tested, read-out: VRE MBC
[13] = Table 3, at least three independent experiments, read-out: MRSA-2 MIC

| Compound | % Haemolysis at 200 μM (human red blood cells; human, 1 h, pH 7.2) [%] | MBC [1, 11] [µM] | MBC [2, 12] [µM] | MIC ([3]; Table 3) [µM] | MIC ([4]; Table 3) [µM] | MIC [5, 13] [µM] | MBC ([6]; Table 3, read-out: MRSE MBC) [µM] | further results |
| --- | --- | --- | --- | --- | --- | --- | --- | --- |
| Oc1c(Br)cc(Br)c2ccc(CNc3ccc(Br)cc3)nc12 [HQ-6] |  |  |  |  |  |  |  | MBEC:MBC ratio ([1]; MRSA-2, CBD): equipotent killing efficiencies; MBC ([1]; Table 2, planktonic killing, CBD, first value of MBC/MBEC cell, read-out: MRSA-2 Clinical Isolate MBC): 125 µM (≈ 60.9 µg/mL); MBC ([2]; Table 2, planktonic killing, CBD, first value of cell, read-out: VRE ATCC 700221 MBC): 3.9 µM (≈ 1.9 µg/mL); Fold Δ (MIC w/Mg^2+) (MRSA-2; [7]): insignificant changes in antibacterial activities; Fold Δ (MIC w/Zn^2+) (MRSA-2; [7]): −6 fold; MIC (MRSA-2; [8]): 9.38 µM; MIC (MRSA-2; [9]): 1.13 µM; MIC (MRSA-2; MRSA-2, 200 μM magnesium (II) sulfate, read-out: MIC w/Mg^2+): 3.13 µM; MIC (MRSA-2; [10]): 0.78 µM; MIC ([3]; 18 h, Table 2, ATCC 700221): 0.39 to 0.78 µM (≈ 0.19 to 0.38 µg/mL); MIC ([3]; Table 2, ATCC 700221): 0.78 µM (≈ 0.38 µg/mL); fold more potent antibacterial activities than vancomycin ([4]; MRSE, MIC, same assays): 5 fold; MIC ([4]; 18 h, Table 2, ATCC 35984): 0.15 to 0.3 µM (≈ 0.073 to 0.146 µg/mL); MIC ([4]; Table 2, ATCC 35984): 0.15 µM (≈ 0.073 µg/mL); MIC ([5]; Table 2, 2 to 6 independent experiments, read-out: MRSA-2 MIC): 3.13 µM (≈ 1.52 µg/mL); MIC ([5]; read-out: MIC): 4.69 µM (≈ 2.28 µg/mL); MBC ([6]; Table 2, read-out: MRSE ATCC 35984 MBC): 5.9 µM (≈ 2.87 µg/mL) |
| CCc1ccc2c(Br)cc(Br)c(O)c2n1 [A-HQ-1] | ≤1 | 93.8 (≈ 31 µg/mL) | 1.5 (≈ 0.497 µg/mL) | 0.78 (≈ 0.258 µg/mL) | 0.39 (≈ 0.129 µg/mL) | 0.78 (≈ 0.258 µg/mL) | 31.3 (≈ 10.4 µg/mL) |  |
| NC(=O)c1cnccn1 [Pyrazinamide, reference compound] | ≤1 | > 2000 |  |  |  |  |  |  |
| O=C(O)CN(CCN(CC(=O)O)CC(=O)O)CC(=O)O [EDTA, ethylenediaminetetraacetic acid, reference compound] |  | 2000 (≈ 584 µg/mL) |  |  |  |  | 1000 (≈ 292 µg/mL) | % Haemolysis at 200 μM (human red blood cells; Table 3, human red blood cells): 3.0% |
| CCCc1ccc2c(I)cc(I)c(O)c2n1 [A-HQ-4] | ≤1 | 188 (≈ 82.5 µg/mL) | 7.8 (≈ 3.42 µg/mL) | 0.39 (≈ 0.171 µg/mL) | 1.17 (≈ 0.514 µg/mL) | 1.56 (≈ 0.685 µg/mL) | 125 (≈ 54.9 µg/mL) | Fold Δ (MIC w/Cu^2+) (MRSA-2; [7]): +8 fold; Fold Δ (MIC w/Fe^2+) (MRSA-2; [7]): +64 fold; Fold Δ (MIC w/Zn^2+) (MRSA-2; [7]): −8 fold; MIC (MRSA-2; [8]): > 100 µM; MIC (MRSA-2; [9]): 12.5 µM; MIC (MRSA-2; [10]): 0.2 µM; MIC ([5]; read-out: MIC): 1.56 µM (≈ 0.685 µg/mL) |
| Oc1c(Br)cc(Br)c2ccc(CNc3cccc(Br)c3)nc12 [RA-HQ-15] | 37.3 | 188 (≈ 91.6 µg/mL) | 7.8 (≈ 3.8 µg/mL) | 0.78 (≈ 0.38 µg/mL) | 0.2 (≈ 0.0974 µg/mL) | 1.56 (≈ 0.76 µg/mL) | 31.3 (≈ 15.2 µg/mL) |  |
| CCCCNCc1ccc2c(Br)cc(Br)c(O)c2n1 [HQ-2] |  |  |  |  |  |  |  | MBC ([1]; read-out: MRSA-2 Clinical Isolate MBC): 46.9 µM (≈ 18.2 µg/mL); MBC ([2]; read-out: VRE ATCC 700221 MBC): 15.6 µM (≈ 6.05 µg/mL); MIC (MRSA-2; MRSA, read-out: MIC w/Cu^2+): 3.13 µM; MIC (MRSA-2; MRSA, read-out: MIC w/Fe^2+): 3.13 µM; MIC (MRSA-2; MRSA, read-out: MIC w/Zn^2+): 1.17 µM; MIC [3]: 3.13 µM (≈ 1.21 µg/mL); MIC [4]: 3.13 µM (≈ 1.21 µg/mL); MIC [5]: 3.13 µM (≈ 1.21 µg/mL); MIC ([5]; read-out: MRSA-2 MIC): 6.25 µM (≈ 2.43 µg/mL) |
| Oc1c(Br)cc(Br)c2ccc(CNc3ccc(I)cc3)nc12 [RA-HQ-14] | 11.0 | 250 (≈ 133 µg/mL) | 46.9 (≈ 25 µg/mL) | 4.69 (≈ 2.5 µg/mL) | 0.78 (≈ 0.417 µg/mL) | 4.69 (≈ 2.5 µg/mL) | 46.9 (≈ 25 µg/mL) |  |
| Oc1c(Br)cc(Br)c2ccc(CNc3cc(Br)ccc3Br)nc12 [RA-HQ-17] | 7.4 | 750 (≈ 424 µg/mL) | 31.3 (≈ 17.7 µg/mL) | 1.56 (≈ 0.883 µg/mL) | 0.59 (≈ 0.334 µg/mL) | 3.13 (≈ 1.77 µg/mL) | 188 (≈ 106 µg/mL) |  |
